Test results as given in ChEMBL document CHEMBL1157966, “Synthesis of salvinorin A analogues as opioid receptor probes” (J Nat Prod, 2006).

Key:
[1] = Selectivity ratio of Ki for mu opioid receptor to kappa opioid receptor
[2] = Selectivity ratio of Ki for delta opioid receptor to kappa opioid receptor
[3] = molecular target: Kappa-type opioid receptor (Homo sapiens, UniProt P41145); test: Displacement of [125]OXY from kappa opioid receptor
[4] = molecular target: Mu-type opioid receptor (Homo sapiens, UniProt P35372); test: Displacement of [125]OXY from mu opioid receptor
Chain of Mu-type opioid receptor (P35372 whole entry): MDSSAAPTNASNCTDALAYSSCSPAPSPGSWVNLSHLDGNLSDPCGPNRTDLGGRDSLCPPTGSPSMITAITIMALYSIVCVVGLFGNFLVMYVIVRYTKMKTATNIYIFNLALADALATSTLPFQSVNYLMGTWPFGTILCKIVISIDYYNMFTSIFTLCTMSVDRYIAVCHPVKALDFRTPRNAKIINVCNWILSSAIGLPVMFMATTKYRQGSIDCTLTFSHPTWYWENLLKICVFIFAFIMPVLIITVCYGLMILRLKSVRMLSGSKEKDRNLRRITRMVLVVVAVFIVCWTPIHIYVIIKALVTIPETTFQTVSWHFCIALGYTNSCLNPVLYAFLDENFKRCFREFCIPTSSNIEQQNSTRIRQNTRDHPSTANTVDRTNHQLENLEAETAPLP

[5] = molecular target: Delta-type opioid receptor (Homo sapiens, UniProt P41143); test: Displacement of [125]OXY from delta opioid receptor
Chain of Delta-type opioid receptor (P41143 whole entry): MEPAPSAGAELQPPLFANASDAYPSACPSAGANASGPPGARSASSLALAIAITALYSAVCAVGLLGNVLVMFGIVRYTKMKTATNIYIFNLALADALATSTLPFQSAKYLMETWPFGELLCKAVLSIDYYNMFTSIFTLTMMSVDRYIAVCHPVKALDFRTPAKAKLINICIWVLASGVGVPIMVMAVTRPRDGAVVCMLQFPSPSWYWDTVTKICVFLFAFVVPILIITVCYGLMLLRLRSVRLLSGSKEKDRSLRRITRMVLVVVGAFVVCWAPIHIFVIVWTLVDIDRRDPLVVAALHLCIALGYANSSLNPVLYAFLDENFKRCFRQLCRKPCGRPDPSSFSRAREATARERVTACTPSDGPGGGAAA

Chain of Kappa-type opioid receptor (P41145 whole entry): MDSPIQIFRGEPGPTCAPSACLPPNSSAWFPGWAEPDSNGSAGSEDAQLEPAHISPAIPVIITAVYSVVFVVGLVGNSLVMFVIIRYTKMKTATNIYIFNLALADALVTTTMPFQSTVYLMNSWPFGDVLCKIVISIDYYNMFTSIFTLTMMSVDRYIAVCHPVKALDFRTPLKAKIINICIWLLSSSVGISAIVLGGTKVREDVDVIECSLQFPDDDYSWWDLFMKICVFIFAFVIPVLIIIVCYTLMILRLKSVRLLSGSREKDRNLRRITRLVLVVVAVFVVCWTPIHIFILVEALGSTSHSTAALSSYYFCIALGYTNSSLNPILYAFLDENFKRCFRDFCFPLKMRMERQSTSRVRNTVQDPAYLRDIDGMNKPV

Compound | Ratio Ki [1] | Ratio Ki [2] | Ki [3] [nM] | Ki [4] [nM] | Ki [5] [nM]
COC(=O)[C@@H]1C[C@H](OC(=O)c2cccs2)C(=O)[C@H]2[C@@]1(C)CC[C@H]1C(=O)O[C@H](c3ccoc3)C[C@]21C | 0.04 | 5 | 260 | 10 | 1380
COC(=O)[C@@H]1C[C@H](OC(=O)CCc2ccccc2)C(=O)[C@H]2[C@@]1(C)CC[C@H]1C(=O)O[C@H](c3ccoc3)C[C@]21C | 2 | 52 | 180 | 280 | 9330
CCC(=O)O[C@H]1C[C@@H](C(=O)OC)[C@]2(C)CC[C@H]3C(=O)O[C@H](c4ccoc4)C[C@]3(C)[C@H]2C1=O | > 560 | 2730 |  |  | 
COC(=O)[C@@H]1C[C@H](OC(=O)c2ccccc2)C(=O)[C@H]2[C@@]1(C)CC[C@H]1C(=O)O[C@H](c3ccoc3)C[C@]21C | 0.13 | 12 |  |  | 
COC(=O)[C@@H]1C[C@H](OC(=O)c2ccc(Br)cc2)C(=O)[C@H]2[C@@]1(C)CCC1C(=O)O[C@H](c3ccoc3)C[C@@]12C (single isomer, unassigned) | 0.01 | 2 | 740 | 10 | 1410
COC(=O)[C@@H]1C[C@H](OC(=O)c2cccc(Br)c2)C(=O)[C@H]2[C@@]1(C)CCC1C(=O)O[C@H](c3ccoc3)C[C@@]12C (single isomer, unassigned) | 1.6 | > 100 | 70 | 110 | > 10000
CCCC(=O)O[C@H]1C[C@@H](C(=O)OC)[C@]2(C)CCC3C(=O)O[C@H](c4ccoc4)C[C@]3(C)[C@H]2C1=O (single isomer, unassigned) | 130 | 1010 | 4 | 520 | 4030
COC(=O)[C@@H]1C[C@H](OC(=O)c2ccccc2Br)C(=O)[C@H]2[C@@]1(C)CCC1C(=O)O[C@H](c3ccoc3)C[C@@]12C (single isomer, unassigned) | 1.2 | > 100 | 90 | 110 | > 10000
CCCCCC(=O)O[C@H]1C[C@@H](C(=O)OC)[C@]2(C)CCC3C(=O)O[C@H](c4ccoc4)C[C@]3(C)[C@H]2C1=O (single isomer, unassigned) | 7 | 61 | 70 | 520 | 4240
CCCCC(=O)O[C@H]1C[C@@H](C(=O)OC)[C@]2(C)CCC3C(=O)O[C@H](c4ccoc4)C[C@]3(C)[C@H]2C1=O (single isomer, unassigned) | 21 | 265 | 15 | 310 | 3970
COC(=O)[C@@H]1C[C@H](OC(=O)Cc2ccccc2)C(=O)[C@H]2[C@@]1(C)CCC1C(=O)O[C@H](c3ccoc3)C[C@@]12C (single isomer, unassigned) | 4 | > 30 | 290 | 1090 | > 10000
COC(=O)[C@@H]1C[C@H](OS(=O)(=O)c2ccc(C)cc2)C(=O)[C@H]2[C@@]1(C)CCC1C(=O)O[C@H](c3ccoc3)C[C@@]12C (single isomer, unassigned) | 4 | 74 | 50 | 220 | 3720
COC(=O)[C@@H]1C[C@H](OC(=O)CNC(=O)OC(C)(C)C)C(=O)[C@H]2[C@@]1(C)CCC1C(=O)O[C@H](c3ccoc3)C[C@@]12C (single isomer, unassigned) | 63 | > 100 | 90 | 5660 | > 10000
COC(=O)[C@@H]1C[C@H](OS(=O)(=O)c2ccccc2)C(=O)[C@H]2[C@@]1(C)CCC1C(=O)O[C@H](c3ccoc3)C[C@@]12C (single isomer, unassigned) | > 150 | > 150 | 60 | > 10000 | > 10000
